“Also recorded” adds a separate entry of the source.
Target: SUD-NM / TRF2 G4 interaction (Severe acute respiratory syndrome coronavirus 2, UniProt P0DTD1)
Format: binding, SARS-CoV-2
Conditions: His-SUD-NM 10 nM, biotinylated TRF2 G4 50 nM, TMP 100 to 500 nM

Cc1cc2cc3c(C)cc(=O)oc3c(C)c2o1 [TMP, trimethyl psoralen]
Inhibition of the SUD/G4 interaction (in words): No inhibition; also recorded: does not inhibit

Reference: article PMC8287907 (Nucleic Acids Research, 2021)
